One test has as its target GSK3β (Homo sapiens (Human), UniProt P49841). Briefly: GSK3β kinase assay (Caliper LabChip, fluoresceinated peptide substrate). The class given is biochemical. The following applies: 250 pM enzyme, 20 uM ATP, 1.5 uM peptide, 20 hours room temperature; read-out: GSK3β IC50 (first value of GSK3β/GSK3α).
The target of the next test is GSK3α (Homo sapiens (Human), UniProt P49840). Briefly: GSK3α kinase assay (Caliper LabChip, fluoresceinated peptide substrate). Type of test: biochemical. The following applies: 250 pM enzyme, 20 uM ATP, 1.5 uM peptide, 20 hours room temperature; read-out: GSK3α IC50 (second value of GSK3β/GSK3α). An excerpt:
IC50 values were derived by non-linear regression analysis.

The next test relates to pTau. The test is described as follows: pTau assay. Type of test: cell-based.

SMILES strings stand for the structures.

Chain of GSK3α (P49840 whole entry, species assumed): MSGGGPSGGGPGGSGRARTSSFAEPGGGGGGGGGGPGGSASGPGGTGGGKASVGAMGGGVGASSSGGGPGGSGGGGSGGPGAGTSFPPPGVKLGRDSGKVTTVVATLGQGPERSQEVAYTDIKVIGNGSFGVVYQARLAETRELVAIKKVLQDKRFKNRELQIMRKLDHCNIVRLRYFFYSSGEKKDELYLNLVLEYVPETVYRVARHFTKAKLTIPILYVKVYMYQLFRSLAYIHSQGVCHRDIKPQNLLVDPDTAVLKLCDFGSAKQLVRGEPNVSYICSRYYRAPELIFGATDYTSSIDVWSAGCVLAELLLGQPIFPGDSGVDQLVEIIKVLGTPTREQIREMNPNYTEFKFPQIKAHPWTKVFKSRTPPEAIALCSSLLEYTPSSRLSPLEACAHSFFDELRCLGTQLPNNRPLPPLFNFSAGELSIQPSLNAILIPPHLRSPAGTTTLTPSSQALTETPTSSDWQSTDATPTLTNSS
Chain of GSK3β (P49841 whole entry, species assumed): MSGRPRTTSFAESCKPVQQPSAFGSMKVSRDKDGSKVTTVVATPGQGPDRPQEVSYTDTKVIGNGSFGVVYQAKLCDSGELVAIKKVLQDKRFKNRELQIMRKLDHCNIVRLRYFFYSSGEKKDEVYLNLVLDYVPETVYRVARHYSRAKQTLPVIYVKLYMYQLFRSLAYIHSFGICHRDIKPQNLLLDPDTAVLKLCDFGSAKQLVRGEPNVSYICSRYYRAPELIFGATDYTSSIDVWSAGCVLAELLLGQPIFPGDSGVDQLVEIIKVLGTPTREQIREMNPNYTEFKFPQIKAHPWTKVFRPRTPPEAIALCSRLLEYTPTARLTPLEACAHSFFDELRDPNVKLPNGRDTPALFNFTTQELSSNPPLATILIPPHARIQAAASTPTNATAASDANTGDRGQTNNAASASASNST
Protocol for GSK3β: The kinase assay was performed in V-bottom 384-well plates. […] The reaction was incubated at room temperature for 20 hours and terminated by adding 45 μl of 35 mM EDTA to each sample. The reaction mixture was analyzed on the Caliper LabChip3000 (Caliper, Hopkinton, Mass.) by electrophoretic separation of the unphosphorylated substrate and phosphorylated product. […] Compounds were dissolved at 10 mM in dimethylsulfoxide (DMSO) and evaluated at eleven concentrations. IC50 values were derived by non-linear regression analysis.

For the compound `O=C(Nc1cnccc1-c1ccccc1)c1ccnn2c(NCC3CC3)cnc12` [Example 42, 3-((Cyclopropylmethyl)amino)-N-(4-phenylpyridin-3-yl)imidazo[1,2-b]pyridazine-8-carboxamide], the IC50 was found to be 3.4 nM at GSK3β, 3.2 nM at GSK3α and 320 nM in the test with pTau.

As to `O=C(Nc1cnccc1N1CCC(F)(F)CC1)c1ccnn2c(NCC3CC3)cnc12` [Example 43, 3-((Cyclopropylmethyl)amino)-N-(4-(4,4-difluoropiperidin-1-yl)pyridin-3-yl)imidazo[1,2-b]pyridazine-8-carboxamide], the IC50 at GSK3β was determined as 1.1 nM; at GSK3α, 2 nM; in the test with pTau it was 41 nM.

Consider `O=C(Nc1cnccc1N1CCOCC1)c1ccnn2c(NCC3CC3)cnc12` [Example 44, 3-((Cyclopropylmethyl)amino)-N-(4-morpholinopyridin-3-yl)imidazo[1,2-b]pyridazine-8-carboxamide], for which the values for the IC50 on GSK3β, on GSK3α and in the test with pTau were 9 nM, 1.4 nM and 65 nM, respectively.

For the compound `CC1CN(c2ccncc2NC(=O)c2ccnn3c(NCC4CC4)cnc23)CCO1` (stereo not drawn) [Example 45, 3-((Cyclopropylmethyl)amino)-N-(4-(2-methylmorpholino)pyridin-3-yl)imidazo[1,2-b]pyridazine-8-carboxamide], the values for the IC50 at GSK3β, at GSK3α and in the test with pTau were 5.2 nM, 1.6 nM and 140 nM, respectively.

In the case of `CC(C)Oc1ccncc1NC(=O)c1ccnn2c(NC(=O)C3CC3)cnc12` [Example 46, 3-(Cyclopropanecarboxamido)-N-(4-isopropoxypyridin-3-yl)imidazo[1,2-b]pyridazine-8-carboxamide], the IC50 at GSK3β was found to be 6 nM; at GSK3α, 51 nM; with pTau it was 5100 nM.

Take `CC(C)Oc1ccncc1NC(=O)c1ccnn2c(NC(=O)C3CCC3)cnc12` [Example 47, 3-(Cyclobutanecarboxamido)-N-(4-isopropoxypyridin-3-yl)imidazo[1,2-b]pyridazine-8-carboxamide]: the IC50 on GSK3β came out at 140 nM; at GSK3α it was 110 nM; in the test with pTau, 6800 nM.

Values taken from patent US10774086B2, “GSK-3 inhibitors” (BRISTOL-MYERS SQUIBB COMPANY, priority 2016, dated 2020).
